Experimental data: US10076511B2, “Bisamide derivative of dicarboxylic acid as an agent for stimulating tissue regeneration and recovery of diminished tissue function” (TREAMID GmbH, priority 2015, dated 2018)
Several values for one entry are separate records, joined by “and”; a condition that tells them apart may be missing. Equal entries are not always repeated.

Key:
male Wistar rats = test: Metabolic syndrome model in rats (cafeteria diet); type: in vivo, rat
Text: Metabolic syndrome was simulated in male Wistar rats (260-280 g) by keeping animals on a high-fat diet (“cafeteria diet”) for 12 weeks. The “cafeteria diet” was balanced according to Current Protocols in Pharmacology [Current Protocols in Pharmacology (2005) Animal Models of Disease//Contributed by Petter Hedlund, Kenshi Matsumoto, and Karl-Erik Andersson]. The diet contained 25-35% of fats and 25-30% of digestible carbohydrates in addition to the standard diet of rodents. Treamid was administered at a dose of 0.5 mg/kg intragastrically once daily, every day from Week 7 to Week 11 of the diet. Reference drug Metformin was administered at a dose of 200 mg/kg intragastrically according to the same regimen.
The development of pathology and a therapeutic effect of Treamid were estimated by the following parameters: blood biochemical parameters (glucose, cholesterol, triglycerides (TG), HDL, LDL, atherogenicity index), glucose tolerance test, visceral fat weight, total number and percentage of motile sperm forms.
Glucose was determined with an OneNouch Select glucometer (Switzerland).
The levels of triglycerides, TCh and HDL were determined by using a diagnostic kit (Olvex Diagnosticum, Russia).
The level of LDL was determined by the formula 2. LDL=TCh−(HDL+TG/2.2) (1),
The atherogenicity index (AI) was calculated by the formula 3. AI=(TCh−HDL)/HDL (2),
The atherogenicity index was calculated for each animal individually, and then the arithmetic mean value of the group was calculated.
For the analysis of sperm, the animals were anesthetized with intraperitoneal injection of a mixture of Zolletil and Xyla (0.2 ml of Zoletil+0.8 ml Xyla) in a volume of 70 μl/100 g of weight. Epididymis was isolated. The epididymis head was cut off from the tail, weighed, 5 incisions were made (to improve the sperm yield), and placed in a tube containing 10 ml of phosphate buffered saline heated to 37° C. The tube was held at 37° C. for 10 minutes. Then, the tube was shaken on a shaker, 20 μl of the liquid was taken, applied to a glass slide heated to 37° C., and the number of motile sperm cells was assessed under a microscope. The calculation was performed up to 100 sperm cells.
The total number of sperm cells in a test tube with epididymis was calculated as follows: 20 μl of the liquid was taken after shaking and added to a tube containing 400 μl of physiological saline. After shaking the tubes, their contents (20 μl) were taken out and introduced into Goryaev chamber. The number of sperm cells was counted in 100 large squares. The number of sperm cells in the head of epididymis was calculated by the formula: Number of sperm cells=number of sperm cells in 100 large squares of Goryaev chamber*0.525(factor from the calculation of the dilution and the volume of Goryaev chamber)/weight of the epididymis head.

female C57Bl/6 mice = test: Elastase-induced pulmonary emphysema model; type: in vivo, mouse
Description: Pulmonary emphysema was induced in female C57Bl/6 mice by a single intratracheal administration of elastase (Sigma, USA) at a dose of 0.6 U/mouse in 30 μl of 0.9% NaCl [Lüthje L., Raupach T., Michels H. et al.//Respiratory Research 2009, 10: 7]. The day of operation was taken as Day 0 of the experiment. Treamid was administered at a dose of 10 mg/kg intragastrically once daily, every day from Day 7 to Day 60 of the study. On Days 7, 14, 30 and 60, the animals were euthanized in a CO2 chamber, and their lungs were isolated.
The dynamics and severity of the developed emphysema in the lung tissue were assessed on histological preparations. For this, the lungs were fixed in a 10% neutral formalin solution and then poured into paraffin by the standard method. The preparations of the lung apex, middle lung field, and lower lung field of a thickness of 5 μm were prepared from the deparaffined sections, and stained with hematoxylin and eosin by the standard procedure. Further, photographs of the lung apex, middle lung field, and lower lung field were made, and the localization and area of emphysema were studied by using graphics processing software. The area of emphysematously enlarged lung tissue (% of normal tissue) was measured as an estimated score of the development of emphysema, and blood vessels and bronchi were excluded from the calculations [ArrateMunoz-Barrutia, Mario Ceresa, Xabier Artaechevarria, Luis M. Montuenga, and Carlos Ortiz-de-Solorzano. Quantification of Lung Damage in an Elastase-Induced Mouse Model of Emphysema//International Journal of Biomedical Imaging. Volume 2012, Article ID 734734, 11 pages; Susumu Sato, Erzsebet Bartoldk-Suki, Harikrishnan Parameswaran, Hiroshi Hamakawal and Bela Suki. Scale dependence of structure-function relationship in the emphysematous mouse lung//Front. Physiol. 6:146. doi: 10.3389/fphys. 2015.00146].

[1] = Treamid 0.5 mg/kg, Metformin 200 mg/kg intragastrically Week 7-11 of high-fat diet
[2] = high-fat diet for 12 weeks, Treamid 0.5 mg/kg, Metformin 200 mg/kg
[3] = high-fat diet, Treamid 0.5 mg/kg, Metformin 200 mg/kg
[4] = Day 7, Treamid 10 mg/kg intragastrically from Day 7

O=C(CCCC(=O)NCCc1ncc[nH]1)NCCc1ncc[nH]1 [Treamid]
Glucose level in the blood of male rats, mmol/L (male Wistar rats; 3 weeks after the drug administration, Treamid 0.5 mg/kg, Metformin 200 mg/kg): 6.5 ± 0.2*& mmol/L | Glucose level in the blood of male rats, mmol/L (male Wistar rats; 5 weeks after the drug administration, Treamid 0.5 mg/kg, Metformin 200 mg/kg): 7.8 ± 0.2*& mmol/L | Relative weight of visceral fat, Fat near the intestine (male Wistar rats; [1]): 0.94 ± 0.07 % based on body weight | Relative weight of visceral fat, Fat near the kidneys (male Wistar rats; [1]): 0.48 ± 0.05& % based on body weight | Relative weight of visceral fat, Fat near the testes (male Wistar rats; [1]): 1.03 ± 0.14 % based on body weight | Relative weight of visceral fat, Total fat (male Wistar rats; [1]): 2.46 % based on body weight | reduction of visceral fat weight gain in comparison with the control group (male Wistar rats; Treamid 0.5 mg/kg, Metformin): 1.3 times | Glucose level in the blood of male rats (male Wistar rats; before administration of drugs (Week 6 of diet)): 6.4 ± 0.2 mmol/L | HDL, mM/l (male Wistar rats; [2]): 1.9±0.2 mM/l and 1.9 ± 0.2& mM/l | LDL, mM/l (male Wistar rats; [2]): 1.2 ± 0.2 mM/l | Total cholesterol, mM/l (male Wistar rats; [2]): 3.5 ± 0.1 mM/l | Triglycerides, mM/l (male Wistar rats; [2]): 0.9 ± 0.1 mM/l | Percentage of motile sperm forms (male Wistar rats; [3]): 34.43 ± 3.15& % | Total number of sperm cells (male Wistar rats; [3]): 260.0 ± 38.7& | Glucose level in the blood of male rats, mmol/L (male Wistar rats; one week after the drug withdrawal, Treamid 0.5 mg/kg, Metformin 200 mg/kg): 8.3 ± 0.7& mmol/L | increase of the percentage of motile sperm forms (male Wistar rats; vs. high-fat diet control): 1.5 times | increase of the total number of sperm cells (male Wistar rats; vs. high-fat diet control): 1.7 times | The area of emphysematously enlarged lung tissue (% of normal), Lower lung field (female C57Bl/6 mice; [4]): 41.3 ± 1.82 % of normal | The area of emphysematously enlarged lung tissue (% of normal), Lung apex (female C57Bl/6 mice; [4]): 0.9 ± 0.12*• % of normal | The area of emphysematously enlarged lung tissue (% of normal), Middle lung field (female C57Bl/6 mice; [4]): 5.4 ± 0.55 % of normal | The area of emphysematously enlarged lung tissue (% of normal), Lower lung field (female C57Bl/6 mice; Day 14, Treamid 10 mg/kg): 42.6 ± 1.79*• % of normal | The area of emphysematously enlarged lung tissue (% of normal), Lung apex (female C57Bl/6 mice; Day 14, Treamid 10 mg/kg): 0.7 ± 0.09*• % of normal | The area of emphysematously enlarged lung tissue (% of normal), Middle lung field (female C57Bl/6 mice; Day 14, Treamid 10 mg/kg): 29.03 ± 1.76 % of normal | The area of emphysematously enlarged lung tissue (% of normal), Lower lung field (female C57Bl/6 mice; Day 30, Treamid 10 mg/kg): 32.8 ± 3.78*• % of normal | The area of emphysematously enlarged lung tissue (% of normal), Lung apex (female C57Bl/6 mice; Day 30, Treamid 10 mg/kg): 2.4 ± 1.6*• % of normal | The area of emphysematously enlarged lung tissue (% of normal), Middle lung field (female C57Bl/6 mice; Day 30, Treamid 10 mg/kg): 18.5 ± 2.91 % of normal | The area of emphysematously enlarged lung tissue (% of normal), Lower lung field (female C57Bl/6 mice; Day 60, Treamid 10 mg/kg): 40.0 ± 3.57*• % of normal | The area of emphysematously enlarged lung tissue (% of normal), Lung apex (female C57Bl/6 mice; Day 60, Treamid 10 mg/kg): 3.6 ± 0.26*• % of normal | The area of emphysematously enlarged lung tissue (% of normal), Middle lung field (female C57Bl/6 mice; Day 60, Treamid 10 mg/kg): 24.9 ± 3.11 % of normal
